Experimental findings from ChEMBL document CHEMBL1921757, “Small molecule probes of the receptor binding site in the Vibrio cholerae CAI-1 quorum sensing circuit” (Bioorg Med Chem, 2011) are described below.

For orientation: EC50 means the concentration that produces a half-maximal response. One may read the Emax as the size of the effect at its maximum, as opposed to the concentration needed. Broadly, the IC50 is the concentration that inhibits the measured activity by half.

Data set [1] deals with Vibrio cholerae. In words: Antibacterial activity against Vibrio cholerae MM920 assessed as growth inhibition after 4 hrs by spectrophotometry. It counts as organism-based. Conditions: in vivo; call rule not given here.
In data set [2] the target is T1, CAI-1 autoinducer sensor kinase/phosphatase CqsS (Vibrio cholerae serotype O1 (strain ATCC 39315 / El Tor Inaba N16961), UniProt Q9KM66).
T1 sequence (Q9KM66 whole entry): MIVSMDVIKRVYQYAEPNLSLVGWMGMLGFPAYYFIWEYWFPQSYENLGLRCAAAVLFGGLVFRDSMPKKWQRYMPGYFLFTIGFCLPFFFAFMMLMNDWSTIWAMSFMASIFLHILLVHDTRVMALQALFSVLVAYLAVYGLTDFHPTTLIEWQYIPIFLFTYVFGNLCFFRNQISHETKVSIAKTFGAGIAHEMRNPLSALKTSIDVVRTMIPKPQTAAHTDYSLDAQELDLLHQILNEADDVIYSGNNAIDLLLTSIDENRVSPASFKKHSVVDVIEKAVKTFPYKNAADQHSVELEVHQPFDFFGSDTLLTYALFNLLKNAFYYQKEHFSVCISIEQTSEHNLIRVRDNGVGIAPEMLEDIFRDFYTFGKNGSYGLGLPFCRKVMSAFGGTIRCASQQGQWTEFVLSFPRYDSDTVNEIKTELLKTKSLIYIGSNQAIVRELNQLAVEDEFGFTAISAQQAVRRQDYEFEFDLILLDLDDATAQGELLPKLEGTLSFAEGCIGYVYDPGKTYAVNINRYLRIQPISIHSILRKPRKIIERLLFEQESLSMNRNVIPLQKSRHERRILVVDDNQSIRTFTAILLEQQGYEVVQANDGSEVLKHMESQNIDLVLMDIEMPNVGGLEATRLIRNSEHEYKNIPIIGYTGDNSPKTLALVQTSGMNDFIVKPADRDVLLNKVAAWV
Put plainly: Agonist activity at CqsS receptor in cqsA-deficient, luxQ-deficient Vibrio cholerae MM920 harboring cosmid pBB1 carrying Vibrio harveyi luxCDABE gene assessed as induction of quorum sensing regulated bioluminescence after 4 hrs by scintillation counting. It counts as functional.

Data set [3] has as its target T2, CAI-1 autoinducer sensor kinase/phosphatase CqsS (Vibrio cholerae serotype O1 (strain ATCC 39315 / El Tor Inaba N16961)) (UniProt Q9KM66).
T2 sequence (whole entry): T1 sequence (Q9KM66 whole entry)
Put plainly: Agonist activity at CqsS receptor in cqsA-deficient, luxQ-deficient Vibrio cholerae MM920 harboring cosmid pBB1 carrying Vibrio harveyi luxCDABE gene assessed as quorum sensing regulated bioluminescence after 4 hrs by scintillation counting relative to (S)-CAI-1. It is filed as functional.

In data set [4] the target is T2, CAI-1 autoinducer sensor kinase/phosphatase CqsS (Vibrio cholerae serotype O1 (strain ATCC 39315 / El Tor Inaba N16961)). In words: Ratio of compound EC50 to (S)-CAI-1 EC50 for CqsS receptor in cqsA-deficient, luxQ-deficient Vibrio cholerae MM920 harboring cosmid pBB1 carrying Vibrio harveyi luxCDABE gene assessed as induction of quorum sensing regulated bioluminescence after 4 hrs by scintillation counting.

Data set [5] deals with T1, CAI-1 autoinducer sensor kinase/phosphatase CqsS. Put plainly: Antagonist activity at CqsS receptor in Vibrio cholerae MM920 assessed as inhibition of quorum sensing regulated CAI-1 induced bioluminescence after 4 hrs by scintillation counting. It is filed as functional.
In data set [6] the target is T2, CAI-1 autoinducer sensor kinase/phosphatase CqsS (Vibrio cholerae serotype O1 (strain ATCC 39315 / El Tor Inaba N16961)). In words: Antagonist activity at CqsS receptor in Vibrio cholerae MM920 assessed as inhibition of quorum sensing regulated CAI-1 induced bioluminescence after 4 hrs by scintillation counting relative to Ph-CAI-1. It is filed as functional.
Data set [7] has the same target. In words: Ratio of compound IC50 to Ph-CAI-1 IC50 for CqsS receptor in Vibrio cholerae MM920 assessed as inhibition of quorum sensing regulated CAI-1 induced bioluminescence after 4 hrs by scintillation counting.

Structures are written as SMILES. Some results are limits rather than exact numbers.

Turning to `CCCCCCCC(=O)[C@@H](O)CC`, the “growth inhibition (GI)” value in data set [1] is reported as “Not Active”.
In the case of `CCCCCCCC(=O)[C@H](O)CC`, the “growth inhibition (GI)” value in data set [1] is reported as “Not Active”.
For the compound `CCCCCCCCC(=O)[C@@H](O)CC`, the EC50 in data set [2] was found to be 1.1 µM. The maximal effect (Emax) in data set [3] amounted to 100%. Besides, in data set [4], the Ratio EC50 came out at 4.6. In addition, the “growth inhibition (GI)” value in data set [1] was “Not Active”.
Regarding `CCCCCCCCC(=O)[C@H](O)CC`, the EC50 in data set [2] came to 1.61 µM. Also, in data set [3], the Emax is 95%. Also, the Ratio EC50 in data set [4] is 6.7. In addition, the “growth inhibition (GI)” value in data set [1] is given as “Not Active”.
`CCCCCCCCCC(=O)[C@@H](O)CC`: in data set [1], the “growth inhibition (GI)” value is reported as “Not Active”.
The same measure, in the same setting: the entry for `CCCCCCCCCC(=O)[C@H](O)CC` is “Not Active”.
Regarding `CCCCCCCCCCC(=O)[C@@H](O)CC`, the EC50 in data set [2] amounted to 2.09 µM. In addition, the Emax in data set [3] is 98%. In addition, in data set [4], the Ratio EC50 amounted to 8.4. In data set [1], the “growth inhibition (GI)” value is on record as “Not Active”.
The matching figures for `CCCCCCCCCC(=O)C(=O)CC`: 3.2 µM, 92%, 14 and “Not Active”.
As for `CCCCCCCCCC(O)C(=O)CC` (centres undefined), in data set [3], the Emax turned out to be 38%. Further, the Ratio EC50 in data set [4] is 84. In addition, the “growth inhibition (GI)” value in data set [1] is on record as “Not Active”.
Consider `CCCCCCCCCC(O)CCC` (centres undefined), for which the 50% effective concentration (EC50) in data set [2] was greater than 50 µM. Also, the Ratio EC50 in data set [4] is greater than 200. Also, the “growth inhibition (GI)” value in data set [1] is “Not Active”.
The matching figures for `CCCCCCCCCC(=O)CCC`: greater than 50 µM, greater than 200 and “Not Active”.
The matching figures for `CCCCCCCCCCC(O)CC` (centres undefined): greater than 50 µM, greater than 200 and “Not Active”.
The matching figures for `CCCCCCCCCCC(=O)CC`: greater than 50 µM, greater than 200 and “Not Active”.
In the case of `CCCCCCCCCC(=O)C(Cl)CC` (centres undefined), the EC50 in data set [2] is greater than 50 µM. Also, in data set [3], the Emax was 24%. In addition, in data set [4], the Ratio EC50 is greater than 200. For the same compound, the “growth inhibition (GI)” value in data set [1] is “Not Active”.
The matching figures for `CCCCCCCCCC(=O)C(Br)CC` (centres undefined): 2.4 µM, 73%, 13 and “Not Active”.
In the case of `CCCCCCCCCC(=O)C(S)CC` (centres undefined), in data set [2], the EC50 worked out at 1.6 µM. Moreover, in data set [3], the Emax amounted to 67%. Moreover, in data set [4], the Ratio EC50 is 8.6. In data set [1], the “growth inhibition (GI)” value is on record as “Not Active”.
For `CCCCCCCCCC(=O)C(N)CC.Cl` (centres undefined), in that order: 0.21 µM, 105%, 0.27 and “Not Active”.
For `CCCCCCCCCC(=O)[C@H](C)O`, in that order: 0.34 µM, 96%, 2.6 and “Not Active”.
The matching figures for `CCCCCCCCCC(O)C(O)CC` (mixture of isomers): 4.3 µM, 83%, 18 and “Not Active”.
With `CCCCCCCCCC(=O)C(O)CCC` (racemic), the EC50 in data set [2] was 0.78 µM. The Emax in data set [3] was 84%. Further, the Ratio EC50 in data set [4] came to 6. In addition, the “growth inhibition (GI)” value in data set [1] is reported as “Not Active”.
Consider `CCCCCCCCCC(=O)C(O)C(C)C` (racemic), for which the EC50 in data set [2] was determined as 7.16 µM. The Emax in data set [3] was 71%. The Ratio EC50 in data set [4] was determined as 21. In data set [1], the “growth inhibition (GI)” value is on record as “Not Active”.
Consider `CCCCCCCCCC(=O)C(O)C(C)(C)C` (racemic), for which the EC50 in data set [2] is greater than 50 µM. For the same compound, in data set [4], the Ratio EC50 is greater than 200. Further, in data set [1], the “growth inhibition (GI)” value is given as “Not Active”.
With `CCCCCCCCCC(=O)C(O)c1ccccc1` (racemic), the half-inhibitory concentration (IC50) in data set [5] worked out at 55 µM. Moreover, in data set [6], the Imax came out at 100%. Moreover, the Ratio IC50 in data set [7] amounted to 1. Moreover, the “growth inhibition (GI)” value in data set [1] is “Not Active”.
As for `CCCCCCCCCC(=O)C(O)c1ccccc1C` (racemic), the IC50 in data set [5] was greater than 500 µM. In addition, the Ratio IC50 in data set [7] is greater than 9. Also, in data set [1], the “growth inhibition (GI)” value is given as “Not Active”.
Take `CCCCCCCCCC(=O)C(O)c1cccc(C)c1` (racemic): in data set [5], the IC50 came out at 46 µM. The Imax in data set [6] was 58%. The Ratio IC50 in data set [7] was determined as 0.91. For the same compound, the “growth inhibition (GI)” value in data set [1] is listed as “Not Active”.
For `CCCCCCCCCC(=O)C(O)c1ccc(C)cc1` (racemic), in that order: 114 µM, 99%, 2.2 and “Not Active”.
For `CCCCCCCCCC(=O)C(O)c1ccc(C)c(C)c1` (racemic), the IC50 in data set [5] was greater than 500 µM. In addition, the Ratio IC50 in data set [7] was greater than 9. For the same compound, the “growth inhibition (GI)” value in data set [1] is “Not Active”.
As to `CCCCCCCCCC(=O)C(O)c1ccccc1O` (racemic), the IC50 in data set [5] came to 172 µM. Moreover, in data set [6], the Imax came to 144%. Further, in data set [7], the Ratio IC50 came out at 3.4. The “growth inhibition (GI)” value in data set [1] is “Not Active”.
For `CCCCCCCCCC(=O)C(O)c1cccc(O)c1` (racemic), in that order: 36 µM, 123%, 0.71 and “Not Active”.
The matching figures for `CCCCCCCCCC(=O)C(O)c1ccc(O)cc1` (racemic): 78 µM, 119%, 1.5 and “Not Active”.
For `CCCCCCCCCC(=O)C(O)c1ccc(O)c(O)c1` (racemic), in that order: 174 µM, 122%, 3.4 and “Not Active”.
As for `CCCCCCCCCC(=O)C(O)c1ccccc1OC` (racemic), the half-maximal inhibitory concentration (IC50) in data set [5] is greater than 500 µM. Moreover, the Ratio IC50 in data set [7] was greater than 9. Also, in data set [1], the “growth inhibition (GI)” value is reported as “Not Active”.
For `CCCCCCCCCC(=O)C(O)c1cccc(OC)c1` (racemic), in that order: greater than 500 µM, greater than 9 and “Not Active”.
`CCCCCCCCCC(=O)C(O)c1ccc(OC)cc1` (racemic): in data set [5], the IC50 was greater than 500 µM. In data set [7], the Ratio IC50 was greater than 9. Further, the “growth inhibition (GI)” value in data set [1] is listed as “Not Active”.
With `CCCCCCCCCC(=O)C(O)c1ccccc1F` (racemic), in data set [5], the IC50 was found to be 74 µM. Also, the Imax in data set [6] was found to be 105%. Further, in data set [7], the Ratio IC50 was 1.5. For the same compound, the “growth inhibition (GI)” value in data set [1] is reported as “Not Active”.
The matching figures for `CCCCCCCCCC(=O)C(O)c1cccc(F)c1` (racemic): 178 µM, 112%, 3.5 and “Not Active”.
`CCCCCCCCCC(=O)C(O)c1ccccc1Cl` (racemic): in data set [5], the concentration for half-maximal inhibition (IC50) was greater than 500 µM. Besides, in data set [7], the Ratio IC50 is greater than 9. Moreover, the “growth inhibition (GI)” value in data set [1] was “Not Active”.
For the compound `CCCCCCCCCC(=O)C(O)c1cccc(Cl)c1` (racemic), the IC50 in data set [5] was greater than 500 µM. Moreover, the Ratio IC50 in data set [7] is greater than 9. In addition, the “growth inhibition (GI)” value in data set [1] is on record as “Not Active”.
As to `CCCCCCCCCC(=O)C(O)c1ccc(Cl)cc1` (racemic), in data set [5], the 50% inhibitory concentration (IC50) was greater than 500 µM. Besides, the Ratio IC50 in data set [7] was greater than 9. The “growth inhibition (GI)” value in data set [1] is listed as “Not Active”.
For `CCCCCCCCCC(=O)C(O)c1ccccc1Br` (racemic), in that order: greater than 500 µM, greater than 9 and “Not Active”.
For `CCCCCCCCCC(=O)C(O)c1cccc(Br)c1` (racemic), in that order: greater than 500 µM, greater than 9 and “Not Active”.
The matching figures for `CCCCCCCCCC(=O)C(N)c1ccccc1.Cl` (racemic): greater than 500 µM, greater than 9 and “Not Active”.
